Assay results taken from patent EP4563579A1, “MACROCYCLIC EGFR INHIBITOR, AND PREPARATION METHOD THEREFOR AND PHARMACEUTICAL USE THEREOF” (Abbisko Therapeutics Co., Ltd., priority 2022, dated 2024).

How the values were obtained:
Type in all cases: cell-based
[1] = test system: Ba/F3 EGFR-L858R-C797S (LC); test: Cell proliferation assay (CellTiter-Glo), Ba/F3 LC; conditions: Mus musculus, BaF3; Ba/F3 EGFR-L858R-C797S cells, 72 hour incubation, CTG readout
Method: (§1) • DMEM Medium (Gibco, Cat#11965118) • RPMI1640 Medium (Gibco, Cat#11875119) • Fetal Bovine Serum (FBS) (GBICO, Cat#10099-141) • CellTiter-Glo® Luminescent Cell Viability Assay Kit (Promega, Cat#G7572) 96-well, Black, Clear Flat Bottom Plate (Corning®, Cat# 3603)
(§2) • SpectraMax Multimode Microplate Reader MD, 2104-0010A; • CO2 Incubator, Thermo Scientific 3100 Series; • Biosafety Cabinet, Thermo Scientific, 1300 Series A2; • Inverted Microscope, Olympus, CKX41SF; • Siemens Refrigerator, KK25E76TI.
(§3) • 1. Cell Culture and Inoculation: • (1) Harvest cells in a logarithmic growth phase and count the cells using a […]. Test cell viability using a trypan blue exclusion method to ensure that cell viability is above 90%. • (2) Adjust the cell concentration to desired final density; and add 90 µL of cell suspension to a 96-well plate. • (3) Incubate the cells overnight at 37°C, under 5% CO2 and 95% humidity in the 96-well plate. • 2. T0 Reference Data: • (1) Add 10 µL PBS to each well of the T0 plate containing cells. • (2) Thaw the CTG reagent and equilibrate the plate to room temperature for 30 minutes. • (3) Add an equal volume of CTG solution to each well. • (4) Lyse cells by shaking on an orbital shaker for 5 minutes. • (5) Leave the plate at room temperature for 20 minutes to stabilize the luminescence signal. • (6) Read the T0 […]. • 3. Compound Dilution and Addition • (1) Add a corresponding volume of DMSO to a corresponding compound powder according to the compound information sheet to prepare a 10 mM stock solution. • (2) Prepare 1000-fold and 3.16-fold diluted compound solutions. • (3) Dilute the 1000× diluted compound solution 100-fold with PBS to prepare a 10-fold compound solution, with a maximum concentration of 10 µM, nine concentrations and 3.16-fold dilution. Then add 10 µL of the drug solution concentration to individual wells of the 96-well plate seeded with cells. Test each compound concentration in triplicate wells, and the final DMSO concentration is 0.1%. • (4) Incubate the cells in the 96-well plate containing the drug compounds at 37°C, under 5% CO2, and 95% humidity for an additional 72 hour period prior to performing the CTG analysis. • 4. Fluorescence Signal Reading • (1) Thaw the CTG reagent and equilibrate the plate to room temperature for 30 minutes. • (2) Add an equal volume of CTG solution to each well. • (3) Lyse cells by shaking on an orbital shaker for 5 minutes. • (4) Leave the plate at room temperature for 20 minutes to stabilize the […]. • (5) Read fluorescence value. • 5. Data Processing
(§4) Analyze the data by using GraphPad Prism 7.0 software, and use Non-linear S-curve regression to fit the dose-response curves, to calculate the IC50 values (in nM). The specific experiment results are presented in Table 1: [formula] Table 1: Biology Test Results

[2] = test system: Ba/F3 EGFR-L858R-T790M-C797S (LTC); test: Cell proliferation assay (CellTiter-Glo), Ba/F3 LTC; conditions: Mus musculus, BaF3; Ba/F3 EGFR-L858R-T790M-C797S cells, 72 hour incubation, CTG readout
Method: as §1, §2, §3, §4

[3] = test system: A431 WT; test: Cell proliferation assay (CellTiter-Glo), A431 WT; conditions: Homo sapiens, A-431; A431 WT cells, 72 hour incubation, CTG readout
Method: as §1, §2, §3, §4

[4] = test system: Ba/F3 EGFR-DEL19-T790M-C797S (DTC); test: Cell proliferation assay (CellTiter-Glo), Ba/F3 DTC; conditions: Ba/F3 EGFR-DEL19-T790M-C797S cells, 72 hour incubation, CTG readout; read-out: IC50 BaF3 DTC
Method: as §1, §2, §3, §4

[5] = test system: Ba/F3 EGFR-DEL19-C797S (DC); test: Cell proliferation assay (CellTiter-Glo), Ba/F3 DC; conditions: Mus musculus, BaF3; Ba/F3 EGFR-DEL19-C797S cells, 72 hour incubation, CTG readout
Method: as §1, §2, §3, §4

| IC50 [1] | IC50 [2] | IC50 [3] | IC50 [4] | IC50 [5] | Structure (SMILES) |
| --- | --- | --- | --- | --- | --- |
| 10.8 nM | 4.3 nM | 366 nM | 4.8 nM | 3.5 nM | CC(C)S(=O)(=O)C[C@@H]1CCN(c2nn3c4cc(ncc24)Nc2ccnc(n2)-c2cnn(C)c2OCC2(CCCC2)C3)C1 [Example 31, (R)-3'-(3-((isopropylsulfonyl)methyl)pyrrolidin-1-yl)-1 '-methylspiro(cyclopentane-1,6'-8-oxa-3-aza-4(6,1)-pyrazolo[4,3-c]pyridina-2(2,4)-pyrimidina-1(4,5)-pyrazolacyclooctaphane)] |
| 2.9 nM | 1.3 nM | 700 nM | 3.6 nM | 5 nM | CCCCS(=O)(=O)C[C@H]1CCN(c2nn3c4cc(ncc24)Nc2ccnc(n2)-c2cnn(C)c2OCC2(CCCC2)C3)C1 [Example 43, (S)-3'-(3-((butylsulfonyl)methyl)pyrrolidin-1-yl)-1'-me thylspiro(cyclopentane-1,6' -8-oxa-3-aza-4(6,1)-pyrazolo[4,3-c]pyridina-2(2,4)-pyrimidina-1(4,5)-pyrazolacyclooctaphane)] |
| 11.8 nM | 5.8 nM | 744 nM | 2.4 nM | 2.5 nM | Cn1ncc2c1OCC1(CCCC1)Cn1nc(N3CC[C@@H](CS(=O)(=O)C4CC4)C3)c3cnc(cc31)Nc1ccnc-2n1 [Example 30] |
| 5.3 nM | 1.9 nM | 1130 nM | 4 nM | 10.1 nM | Cn1ncc2c1OCC1(CCCC1)Cn1nc(N3CC[C@H](CS(=O)(=O)C4CCC4)C3)c3cnc(cc31)Nc1ccnc-2n1 [Example 44, (S)-3'-(3-((cyclobutylsulfonyl)methyl)pyrrolidin-1-yl)-1 '-methylspiro(cyclopentane-1,6'-8-oxa-3-aza-4(6,1)-pyrazolo[4,3-c]pyridina-2(2,4)-pyrimidina-1(4,5)-pyrazolacyclooctaphane)] |
| 13.4 nM | 5.2 nM | 587 nM | 1 nM | 1.1 nM | Cn1ncc2c1OCC1(CCCC1)Cn1nc(N3CC[C@@H](CS(C)(=O)=O)C3)c3cnc(cc31)Nc1ccnc-2n1 [Example 27, (R)-1'-methyl-3'-(3-((methylsulfonyl)methyl)pyrrolidin-1-yl)spiro(cyclopentane-1 ,6'-8-oxa-3-aza-4(6,1)-pyrazolo[4,3-c]pyridina-2(2,4)-pyrimidina-1(4,5)-pyrazolacyclooctaphane)] |
| 5.1 nM | 2 nM | 614 nM | 1.5 nM | 2.5 nM | Cn1ncc2c1OCC1(CCCCC1)Cn1nc(N3CC[C@H](CS(C)(=O)=O)C3)c3cnc(cc31)Nc1ccnc-2n1 [Example 36, (S)-1'-methyl-3'-(3-((methylsulfonyl)methyl)pyrrolidin-1-yl)spiro(cyclohexane-1,6' -8-oxa-3-aza-4(6,1)-pyrazolo[4,3-c]pyridina-2(2,4)-pyrimidina-1(4,5)-pyrazolacyclooctaphane)] |

The remaining lines, values behind:

| Structure (SMILES) | IC50 [1] | IC50 [2] | IC50 [3] | IC50 [4] | IC50 [5] |
| --- | --- | --- | --- | --- | --- |
| Cn1ncc2c1OCC1(CCCC1)Cn1nc(N3CC[C@@H](NS(C)(=O)=O)C3)c3cnc(cc31)Nc1ccnc-2n1 [Example 48, (R)-N-(1-(1'-methylspiro(cyclopentane-1,6'-8-oxa-3-aza-4(6,1)-pyrazolo[4,3-c]pyridina-2(2,4)-pyrimidina-1(4,5)-pyrazolacyclooctaphane)-3'-yl)pyrrolidin-3-yl)metha nesulfonamide] | 7.6 nM | 4.5 nM | 357 nM | 2 nM | 2.5 nM |
| CN1CC(C#Cc2nn3c4cc(ncc24)Nc2ccnc(n2)-c2cnn(C)c2OCC2(CCCC2)C3)C1 [Example 8, 1'-methyl-3'-((1-methylazetidin-3-yl)ethynyl)spiro(cyclopentane-1,6'-8-oxa-3-aza-4(6,1)-pyrazolo[4,3-c]pyridina-2(2,4)-pyrimidina-1(4,5)-pyrazolacyclooctaphane)] | 63.5 nM | 39.4 nM | 499 nM | 27.8 nM | 31.5 nM |
| Cn1ncc2c1OCC1(CCCC1)Cn1nc(N3CC(CS(C)(=O)=O)C3)c3cnc(cc31)Nc1ccnc-2n1 [Example 26, 1'-methyl-3'-(3-((methylsulfonyl)methyl)azetidin-1-yl)s piro(cyclopentane-1,6'-8-oxa-3-aza-4(6,1)-pyrazolo[4,3-c]pyridina-2(2,4)-pyrimidina-1(4,5)-pyrazolacyclooctaphane)] | 33.5 nM | 28.5 nM | 645 nM | 16.3 nM | 11.4 nM |
| Cn1ncc2c1OCC1(CCC1)Cn1nc(N3CC(CS(C)(=O)=O)C3)c3cnc(cc31)Nc1ccnc-2n1 [Example 25, 1'-methyl-3'-(3-((methylsulfonyl)methyl)azetidin-1-yl)s piro(cyclobutane-1,6'-8-oxa-3-aza-4(6,1)-pyrazolo[4,3-c]pyridina-2(2,4)-pyrimidina-1(4,5)-pyrazolacyclooctaphane)] | 123 nM | 106 nM | 571 nM | 42.6 nM | 66.5 nM |
| Cn1ncc2c1OCC1(CCCC1)Cn1nc(N3CC[C@H](CS(=O)(=O)C4CCCC4)C3)c3cnc(cc31)Nc1ccnc-2n1 [Example 45, (S)-3'-(3-((cyclopentylsulfonyl)methyl)pyrrolidin-1-yl)-1'-methylspiro(cyclopentane-1,6'-8-oxa-3-aza-4(6,1)-pyrazolo[4,3-c]pyridina-2(2, 4)-pyrimidina-1(4,5)-pyrazolacyclooctaphane)] | 2.9 nM | 1.1 nM | 738 nM | 3.9 nM | 4 nM |
| CN1CCC(F)(C#Cc2nn3c4cc(ncc24)Nc2ccnc(n2)-c2cnn(C)c2OCC2(CCOCC2)C3)CC1 [Example 11, 3'-((4-fluoro-1-methylpiperidin-4-yl)ethynyl)-1'-methyl-2,3,5,6-tetrahydrospiro(pyran-4,6'-8-oxa-3-aza-4(6,1)-pyrazolo[4,3-c]pyridina-2(2,4)-pyrimidina-1(4,5)-pyrazolacyclooctaphane)] | 187 nM | 133 nM | 807 nM | 92.2 nM | 128 nM |
| CN1CCC(C#Cc2nn3c4cc(ncc24)Nc2ccnc(n2)-c2cnn(C)c2OCC2(CCCC2)C3)C1 (stereo not drawn) [Example 2, 1'-methyl-3-((1-methylpyrrolidin-3-yl)ethynyl)spiro(cyclopentane-1,6'-8-oxa-3-aza-4(6,1)-pyrazolo[4,3-c]pyridina-2(2,4)-pyrimidina-1(4,5)-pyrazolacyclooctaphane)] | 21.1 nM | 12.8 nM | 603 nM | 17.5 nM | 30.4 nM |
| CN1CCC(F)(C#Cc2nn3c4cc(ncc24)Nc2ccnc(n2)-c2cnn(C)c2OCC2(CCCC2)C3)CC1 [Example 9, 3'-((4-fluoro-1-methylpiperidin-4-yl)ethynyl)-1'-methyls piro(cyclopentane-1,6'-8-oxa-3-aza-4(6,1)-pyrazolo[4,3-c]pyridina-2(2,4)-pyrimidina-1(4,5)-pyrazolacyclooctaphane)] | 62.7 nM | 47 nM | 1920 nM | 18.4 nM | 32.8 nM |
| Cn1ncc2c1OCC1(CCCC1)Cn1nc(N3CC[C@](C)(O)C3)c3cnc(cc31)Nc1ccnc-2n1 [Example 23, (S)-3-methyl-1-(1'-methylspiro(cyclopentane-1,6'-8-oxa-3-aza-4(6,1)-pyrazolo[4,3-c]pyridina-2(2,4)-pyrimidina-1(4,5)-pyrazolacyclooctaphane)-3'-yl)pyrrolidin-3-ol] | 19.5 nM | 8.1 nM | 771 nM | 3.5 nM | 7.8 nM |
